Values of other authors, collected in patent publication US11058615B1, “Cosmetic dermal serum with skin rejuvenation properties” (Key Element LLC, priority 2018, dated 2021).

Legend:
hyperpigmentation = hyperpigmentation caused by exposure to UVA and UVB
skin blemishes = conditions: recent clinical studies (ncbi.nlm.nih.gov/pubmed/18492184)

O=C1O[C@H]([C@@H](O)CO)C([O-])=C1OP(=O)([O-])[O-].[Na+].[Na+].[Na+] [SAP, Sodium Ascorbyl Phosphate]
efficacy in helping to normalize skin tone (hyperpigmentation): excellent efficacy
efficacy to fight skin blemishes (skin blemishes): significant efficacy
